According to publication PMC10844371 (Diabetologia, 2023):
Read-outs that look alike come from different tables or passages of the source.

How the values were obtained:
P/Q-type Ca^2+ channels = assay: [Ca2+]i imaging of depolarisation-evoked Ca2+ entry in alpha cells (Gcg-GCaMP6f islets); assay type: cell-based, mouse; details: 10 pmol/l, 70 mmol/l [K+]o, isradipine 10 μmol/l; n=139 cells from 4 mice
Description: For live-cell cytoplasmic free Ca^2+ concentration ([Ca^2+]i) imaging experiments, Gcg-GCaMP6f islets were immobilised to a poly-L-lysine-coated coverslip fixed in a custom-built imaging chamber filled with EC3 (ESM Table 2). [Ca^2+]i was measured in islets from mice expressing GCaMP6f in alpha cells. [Ca^2+]i imaging experiments were then performed using an inverted LSM 510 confocal microscope (Zeiss) controlled with ZEN Black (Zeiss), using a ×40/1.3 oil immersion objective. Time-lapse images were collected every 0.98 s with a frame size of 256×256 pixels, with the bath solution (EC3) perfused at a rate of 0.4 ml/min and heated to 37°C. GCaMP6f was excited by an argon laser (488 nm) and emission was collected at 510 nm.
[Ca^2+]i imaging videos were analysed using the Fiji imaging processing package. The mean fluorescence (F) of each region of interest was normalised to baseline signal (F0) and expressed as F/F0 before exporting into ClampFit (version 10.7; Molecular Devices, CA, USA), where baseline was corrected and AUC was calculated.

[1] = system: isolated mouse pancreatic islets; assay type: cell-based; details: for glucagon secretion, % of that at 1 mmol/l glucose: mean ± SEM
Description: Experiments were conducted as previously described. Islets were incubated in 0.3 ml EC1 or EC2 media (ESM Table 2) supplemented with glucose and other reagents as indicated.
All data are reported, unless otherwise stated, as mean values ± SEM for the indicated number of experiments using islets from multiple mice. For hormone release studies, islets were isolated and pooled from 4–16 mice. These islets were then subdivided into groups of 12–20 size-matched islets. Each unique set of islets counted as an experiment with the experiments repeated on 2–4 days. Similarly, each unique group of human islets was treated as an experiment. […] In the Ca^2+ imaging and granule docking experiment, each cell represents an experiment making sure that cells from multiple donors/animals were used. For the in vivo experiments and the perfused pancreas, each mouse count represents an experiment. For two groupings, a t test was conducted. For multiple comparisons, one-way ANOVA was conducted. All statistical tests were performed using Graphpad Prism (version 9.1.0; graphpad.com).

human alpha cells = assay: TIRF imaging of docked secretory granules in human alpha cells; assay type: cell-based; details: 10 pmol/l
Description: Cells were imaged using total internal reflection fluorescence (TIRF) microscopy (AxioObserver Z1 with a ×100/1.45 objective [Carl Zeiss] and a diode-pumped solid state laser at 491 nm). For these measurements, EC1 was used (ESM Table 2). Images from cells infected with preproglucagon promoter (PPPG)-neuropeptide Y (NPY)-enhanced green fluorescent protein (EGFP) virus were recorded using an electron-multiplying charge-coupled device camera (Photometrics Evolve) using ZEN blue. Single images of cells were acquired to measure the number of docked granules. Incoming and outgoing granules during visiting, docking and undocking were determined from multiple frame movies as described previously. Candidate docking or undocking events were found manually as granules that approached the TIRF field with an axial component and became laterally confined for at least two frames. We defined docking as granules that remained confined for at least 1 min. Visitors were those granules that remained for <1 min after appearing at the plasma membrane. Undocking was defined as slow movement of a previously docked granule away from its docking site. Granule density was calculated using a script that used the built-in ‘find maxima’ function in ImageJ (version 1.53c; http://rsbweb.nih.gov/ij) for spot detection.

CC[C@H](C)[C@H](NC(=O)[C@H](Cc1ccccc1)NC(=O)[C@H](CCC(=O)O)NC(=O)[C@H](CCCCN)NC(=O)[C@H](C)NC(=O)[C@H](C)NC(=O)[C@H](CCC(N)=O)NC(=O)CNC(=O)[C@H](CCC(=O)O)NC(=O)[C@H](CC(C)C)NC(=O)[C@H](Cc1ccc(O)cc1)NC(=O)[C@H](CO)NC(=O)[C@H](CO)NC(=O)[C@@H](NC(=O)[C@H](CC(=O)O)NC(=O)[C@H](CO)NC(=O)[C@@H](NC(=O)[C@H](Cc1ccccc1)NC(=O)[C@@H](NC(=O)CNC(=O)[C@@H](N)CCC(=O)O)[C@@H](C)O)[C@@H](C)O)C(C)C)C(=O)N[C@@H](C)C(=O)N[C@@H](Cc1c[nH]c2ccccc12)C(=O)N[C@@H](CC(C)C)C(=O)N[C@H](C(=O)N[C@@H](CCCCN)C(=O)NCC(=O)N[C@@H](CCCNC(=N)N)C(N)=O)C(C)C [GLP-1(9–36)]
reduction of depolarisation-induced P/Q-type Ca2+ channel-mediated Ca2+ entry (P/Q-type Ca^2+ channels): 34±4% | glucagon secretion, % of that at 1 mmol/l glucose ([1]; 10 pmol/l GLP-1(9–36) in the presence of REMD2.59 100 nmol/l): 110±4% | inhibitory effect on glucagon secretion in Glp1r−/− mouse islets ([1]; 10 pmol/l, Glp1r−/− islets, 1 mmol/l glucose): persisted | glucagonostatic effect in the presence of exendin(9–39) ([1]; 10 pmol/l, exendin(9–39) 1 μmol/l, 1 mmol/l glucose): retained their glucagonostatic effect | inhibition of glucagon secretion ([1]; 30 pmol/l, 1 mmol/l glucose): 55% | change of glucagon secretion compared with 10 mmol/l glucose alone ([1]; 30 pmol/l, 10 mmol/l glucose): −50% | glucagon secretion, % of that at 1 mmol/l glucose ([1]; 1000 pmol/l GLP-1(9–36) in the presence of REMD2.59 100 nmol/l): 76±5% | glucagonostatic effect in the presence of the PKA inhibitor 8-Br-Rp-cAMPS ([1]; 8-Br-Rp-cAMPS 10 μmol/l, 1 mmol/l glucose): retains its glucagonostatic capacity | IC50 ([1]; 48 h): 4 pM | inhibition of amino acid-induced glucagon secretion ([1]; AA 6 mmol/l (2 mmol/l each glutamine, alanine, arginine), 1 mmol/l glucose): −66% | reduction of isoprenaline-stimulated glucagon secretion ([1]; in the presence of isoprenaline): 75% | inhibition of glucagon secretion ([1]; islets cultured overnight without PTX, 1 mmol/l glucose): ~ 50% | reduction of glucagon secretion evoked by 70 mmol/l [K+]o ([1]; membrane depolarisation, 70 mmol/l extracellular K+): 60% | inhibitory effect on glucagon secretion after PTX pretreatment ([1]; overnight PTX 100 ng/ml, 1 mmol/l glucose): almost abolished | expected inhibition of glucagon secretion by circulating levels ([1]; ~30 pmol/l, from the dose–inhibition curves established in vitro): up to 80% | increase of docking (human alpha cells; alpha cells from donors with type 2 diabetes): 40% | reduction of the number of docked granules (human alpha cells; alpha cells from healthy donors, after 15 min): 52%
